Test results published in EP0055490A1, “Tetrahydro-1,2,4-oxadiazin-5-one derivatives, processes for their preparation and medicines containing these compounds” (RICHTER GEDEON VEGYÉSZETI GYÁR RT, priority 1980, dated 1982).

What was measured:
[1] = system: CFLP-Mäusen; test: Inhibition of pentamethylenetetrazole (pentetrazole) convulsion; assay type: in vivo; details: Mus musculus, sc; 20 mg/kg peroral, 1 hour after dosing, groups of 10 mice; 125 mg/kg Pentamethylentetrazol subcutaneous; read-out: Hemmwirkung in % in Bezug auf den Pentamethylentetrazolkrampf tonischen Streckkrampf
Excerpt: (§1) Die pharmakologischen Wirkungen der erfindungsgemäßen Tetrahydro-1,2,4-oxadiazin-5-onderivate der allgemeinen Formel I wurden in Tierversuchen nach den üblichen pharmakologischen Verfahrensweisen nachgewiesen, wobei als Vergleichssubstanzen die anerkannt gut wirksamen bekannten Handelsprodukte 5,5-Diphenylhydantoin [Vergleichssubstanz A] und 3-Methyl-5-äthyl-5-phenylhydantoin [Vergleißhssubstanz B] gleicher Wirkungsrichtung verwendet wurden. Die Tierversuche wurden mit CFLP-Mäusen (LATI, Gödöllo, Ungarn) von gemischtem Geschlecht (Körpergewicht: 18 bis 22 g) mit Gruppen von je 10 Tieren durchgeführt. Die zu untersuchenden Verbindungen wurden in einer 5%-igen wäßrigen Lösung von Polyoxyäthylensorbitanmonooleat [Tween 80® suspendiert und diese Suspensionen wurden.auf peroralem Wege mit einer Sonde den Tieren verabreicht. Die Wirkstoffe wurden in den zur Untersuchung der krampfhemmenden beziehungsweise antikonvulsiven Wirkung durchgeführten Versuchen in Dosen von 20 mg/kg Körpergewicht und zur Messung der neurotoxischen Wirkung in Dosen von 80 mg/kg Körpergewicht verabreicht. Die Wirkungen wurden 1 Stunde nach der Verabreichung durch die im folgenden beschriebenen Verfahrensweisen gemessen.
b) Hemmwirkung gegen den Pentamethylentetrazolkrampf [Pentetrazolkrampf]
Es wurden 125 mg Pentamethylentetrazol/kg Körpergewicht nach der Verfahrensweise von Cr. N. Everett und R. K. Richards (J. Pharmacol. Exp: Therap. 81 [1944], 402) den Tieren subkutan verabreicht. 1 Stunde nach der Verabreichung des zu untersuchex den Wirkstoffes wurde die Wirkung beobachtet: Als Schutiwirkung wurde das Unterbleiben des klonischen Krampfes beriehungsweise des tonischen Streckkrampfes der hinteren GliedmaBen bewertet.

[2] = Acute toxicity (LD50); details: mouse, in vivo, po; single peroral dose, 14 days observation, mice; read-out: Peroraler LD50-Wert (converted)
Excerpt: as §1
Die Toxizität der zu untersuchenden Verbindungen wurde nach 1-maliger Verabreichung von verschiedenen Dosen durch 14 Tage lange Beobachtung der Tiere ermittelt. Die LD50-Werte (die bei 50% der Tiere tödlichen Dosen) wurden auf Grund des Prozentsatzes der innerhalb 14 Tage verendeten Tiere berechnet.

[3] = system: CFLP-Mäusen; test: Maximal electroshock [MES] anticonvulsant test; assay type: in vivo; details: Mus musculus, po; 20 mg/kg peroral, measured 1 hour after dosing, groups of 10 mice; corneal electrode 20 mA, 0,2 s; protection = absence of tonic hindlimb extension; read-out: Hemmwirkung in % in Bezug auf den maximalen Elektroschock
Excerpt: as §1
a) Maximaler Elektroschock [MES]
Die Tiere wurden nach der Verfahrensweise von E. A. Swinyard und Mitarbeitern (J. Pharmacol. 106 [1952], 319) mit einer Hornhautelektrode beziehungsweise Corneal--Elektrode (20 mA, 0,2 Sekunde) geschockt. 100% der Blindversuchs- beziehungsweise Kontrolltiere reagierten auf diesen Reiz mit einem tonischen Streckkrampf (extensorischen Krampf) der hinteren Gliedmaßen. Das Unterbleiben dieser Reaktion wurde als unter der Wirkung der Behandlung eingetretener Schutz gewertet.

SMILES | responders at 20 mg/kg [1] [%] | LD50 at 336 h [2] [mg/kg] | responders at 20 mg/kg [3] [%]
CC(=O)N1OCC(=O)NC1c1ccccc1 (stereo not drawn) [Beispiel 2, 2-Acetyl-3-phenyltetrahydro-1,2,4-oxadiazin-5-on] | 90 | 1190 | 70
CCOC(=O)N1OCC(=O)NC1c1ccccc1 (stereo not drawn) [Beispiel 89] | 20 | 1000 | –
CC(=O)N1OCC(=O)N(C(C)=O)C1c1ccccc1 (stereo not drawn) [Beispiel 8, 2,4-Diacetyl-3-phenyltetrahydro-1,2,4-oxadiazin-5-on] | 40 | 1000 | 60
O=C1NC(=O)C(c2ccccc2)(c2ccccc2)N1 [Vergleichssubstanz A, 5,5-Diphenylhydantoin, reference compound] | 80 | 279 | 90
CC(=O)N1OCC(=O)NC1c1cccc2ccccc12 (stereo not drawn) [Beispiel 15] | – | 800 | 40
CCC1(c2ccccc2)NC(=O)N(C)C1=O (stereo not drawn) [Vergleichssubstanz B, 3-Methyl-5-äthyl-5-phenylhydantoin, reference compound] | 50 | 476 | 10
CC(=O)N1OC(Cc2ccccc2)C(=O)NC1c1ccccc1 (racemic) [Beispiel 60] | 20 | 1000 | –
CC(=O)N1OCC(=O)NC1c1ccc(C(=O)O)cc1 (stereo not drawn) [Beispiel 84] | – | 1000 | 40
CC(=O)N1OCC(=O)NC1c1ccc(Br)cc1 (stereo not drawn) [Beispiel 14] | – | 800 | 40
CC(=O)N1OCC(=O)NC1c1ccc(F)cc1 (stereo not drawn) [Beispiel 13, 2-Acetyl-3-(4'-fluorphenyl)-tetrahydro-1,2,4-oxadiazin-5-on] | 40 | 800 | 40
CC(=O)N1OC(C)C(=O)NC1c1ccccc1 (racemic) [Beispiel 61, 2-Acetyl-3-phenyl-6-methyltetrahydro-1,2,4-oxadiazin-5-on] | 50 | 1000 | 20
O=C1CONC(c2ccc(O)cc2)N1 (stereo not drawn) [Beispiel 63] | 20 | 800 | 40
CC(=O)N1OCC(=O)NC1c1cccs1 (stereo not drawn) [Beispiel 16] | 40 | 800 | 20
CC(=O)N1OCC(=O)NC12CCCCC2 [Beispiel 83] | – | 1000 | 40
